# Patent US12251383B2, “Methods and compositions for KRAS inhibitors” (The Board of Regents of the University of Texas System, priority 2019, dated 2025)
# “Also recorded” adds a separate entry of the source.
# Legend:
# [1] = biological target: KRAS-Raf^RBD interaction (Homo sapiens, UniProt P01116); test: Fluorescence polarization of BGTP-γ-S KRAS with GST-Raf RBD; assay type: binding
# Protocol: FIGS. 2A-2C show representative data pertaining to the disruption of KRAS-Raf interaction by disclosed compound 11. (FIG. 2A) Fluorescence polarization of ^BGTP-γ-SKRAS (0.5 μM) as a function of a varying concentration of GST-Raf^RBD in the absence (red) and presence (blue) of 1 μM compound 11. Shown above the curves is the KD for KRAS-Raf^RBD binding obtained by fitting the data to
# [formula] where P1 is polarization of free KRAS, P2 is polarization of Raf-bound KRAS, c is the total concentration of KRAS, and x the total concentration of Raf^RBD. (FIG. 2B) Amount of GFP-KRAS^G12D pulled down by GST-Raf^RBD after treatment of cell lysates with compound at the concentrations indicated (representative Westerns are shown at the top). The RBD sequence length was 1-149 and 51-131 in the fluorescence polarization and pull-down assays, respectively. (FIG. 2C) GFP fluorescence lifetime from FLIM-FRET using cells expressing GFP-KRAS^G12D alone or with RFP-Raf, with or without treatment by 1 μM compound 11. Data are shown as mean±S.E; significance estimated by one-way analysis of variance.
# Fluorescence polarization. Fluorescence polarization assay was conducted following previous reports (48, 49). KRAS was pre-loaded with the non-hydrolyzable fluorescent GTP analog BODIPY-GTP-γ-S (BGTP-γ-S; Life Technologies) using buffer-exchange in NAP-5 (GE Life Sciences) as described in the previous section. Then 0.5 μM (50 μL) of ^BGTP-γ-SKRAS was incubated with an equal volume but varying concentrations (0 to 2.5 μM) of GST-Raf^RBD (Raf RBD residues 1-149; Life Technologies) for 30 min in the dark. To determine the effect of ligand on RAS-Raf binding, KRAS was first incubated with a fixed concentration of the ligand for 30 min and then with GST-Raf^RBD. Fluorescence polarization was measured using PolarStar Optima plate reader (excitation: 485 nm, emission: 520 nm) at room temperature. GST-tag was used to increase the weight of Raf^RBD for a greater polarization. The dissociation constant for KRAS-Raf binding was determined using a quadratic ligand binding equation (48).
# [2] = biological target: KRAS (Homo sapiens, UniProt P01116); test: Nucleotide release assay (intrinsic and SOS-mediated); assay type: biochemical
# Protocol: (FIG. 6A) Chemical structure of compound 13, an analogue of 11 without a benzene on the pyrimidine core. (FIG. 6B) Predicted binding pose of compound 13. […] See legend of FIGS. 2A-2C for additional details. […] (FIG. 6D) Fluorescence polarization of ^BGTP-γ-SKRAS (0.5 μM) with increasing concentration of GST-Raf^RBD in the absence (red) and presence (green) of 20 μM compound 13. (FIG. 6E) Level of GFP-KRAS^G12D pulled down by GST-Raf^RBD after treatment of whole cell lysates with 10 μM of compound 13 (representative Western blots are shown at the top). The RBD sequence length was 1-149 in the fluorescence polarization assay (FIG. 6D) and 51-131 in the pull-down assay (FIG. 6E). (FIG. 6F) Intrinsic (red) and SOS-mediated (blue) nucleotide release rates were determined. Briefly, fluorescence intensity data obtained in a mixture of 0.5 μM KRAS (and SOS), 100 μM GTP and 0 or 50 μM of compound 13 (top), derived from the changes in during the reaction KRAS^BGDP+GTP→KRAS^GTP+BGDP (bottom). Rates were calculated using single exponential fits starting from 120 s, and are show in the inset to the right of the graph.
# Nucleotide exchange and release assays. Loading of fluorescent-labeled GDP (BODIPY-GDP; BGDP from hereon) to KRAS was conducted following previous reports (23, 47), with minor modifications. Purified KRAS was buffer-exchanged in NAP-5 column (GE Life Sciences) in low Mg^2+ buffer (25 mM Tris pH 7.5, 50 mM NaCl, and 0.5 mM MgCl2). The eluate was incubated with 10-fold molar excess of BGDP (Life Technologies) in the presence of 5 mM EDTA and 1 mM DTT for 1.5 h at 20° C. in the dark. […] The concentration of ^BGDPKRAS was determined using Bradford assay and a BGDP standard curve. Then the effect of ligands on the intrinsic rate of nucleotide release was monitored using the decrease in fluorescence with time as BGDP dissociates from KRAS in a 100 μL reaction mixture (96-well plate) of 0.5 μM B^GDPKRAS, 100 μM GTP and varying concentrations of ligand (0 to 25 μM); GTP was added just before measurements. To measure the rate of SOS-mediated nucleotide release, 0.5 μM SOS (residues 564-1049, Cytoskeleton Inc) was added after adding GTP, and fluorescence was immediately read (excitation: 485 nm, emission: 510 nm) using Tecan Infinite M200 plate reader. Intrinsic and SOS-mediated nucleotide exchange rates were monitored with the fluorescence intensity increase of BGTP as it displaces GDP from KRAS. […] Experiments were conducted with minimal light and the reaction was monitored for 2 h at room temperature. Fluorescence intensities were normalized at 120 s and the traces were fit with linear or single exponential functions (Igor Pro, Wavemetrics).
# The effect of compound 11 on intrinsic and GEF-dependent nucleotide release and exchange reactions was determined. […]
# Chain of KRAS-Raf^RBD interaction (P01116 1-166 isoform P01116-2 limits assumed): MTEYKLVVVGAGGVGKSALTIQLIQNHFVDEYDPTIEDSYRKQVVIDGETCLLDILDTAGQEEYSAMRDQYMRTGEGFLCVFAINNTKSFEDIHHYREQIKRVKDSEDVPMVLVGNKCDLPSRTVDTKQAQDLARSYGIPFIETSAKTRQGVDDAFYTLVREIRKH
# Chain of KRAS (P01116 1-188 isoform P01116-2): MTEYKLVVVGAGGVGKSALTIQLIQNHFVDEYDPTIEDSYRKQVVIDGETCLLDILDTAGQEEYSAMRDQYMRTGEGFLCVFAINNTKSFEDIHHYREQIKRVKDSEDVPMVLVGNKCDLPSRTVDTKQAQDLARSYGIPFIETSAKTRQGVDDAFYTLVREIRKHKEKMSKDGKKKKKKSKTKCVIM
SMILES,"reduction of polarization (RAS-Raf interaction) ([1]; 1 μM compound, at 2 μM GST-Raf^RBD)","reduction of affinity of KRAS to Raf^RBD ([1]; 1 μM compound, from KD of polarization curves)",effect on SOS-mediated nucleotide release rate [2],effect on intrinsic nucleotide release rate [2],effect on interaction of KRAS with GST-Raf^RBD ([1]; 20 μM compound),effect on SOS-mediated nucleotide release rate ([2]; 50 μM compound),effect on intrinsic nucleotide release rate ([2]; 50 μM compound)
"Cc1nn2c(N3CCN(CCO)CC3)cc(-c3ccccc3)nc2c1-c1ccccc1 [Compound 11, 2-[4-(8-methyl-3,9-diphenyl-2,6,7-triazabicyclo[4.3.0]nona-2,4,7,9-tetraen-5-yl)piperazin-1-yl]ethanol]",> 80%,~13 fold,slightly reduced; also recorded: only modestly decreased,no effect,–,–,–
Cc1cc(N2CCN(CCO)CC2)n2nc(C)c(-c3ccccc3)c2n1 [Compound 13],–,–,–,–,as effectively as the parent compound,dramatically increased,dramatically increased
